Key:
[1] = Plasma protein binding by equilibrium dialysis; type: in vitro ADME; conditions: rat, 37° C., plasma vs isotonic phosphate buffer pH 7.4, read-out: % free in plasma
Description: (§1) Measurement of Plasma Levels and Plasma Protein Binding Following Oral Administration to Rats
The plasma protein binding of compounds was measured using the equilibrium dialysis technique (W. Lindner et al, J. Chromatography, 1996, 677, 1-28 ). Compound was dialysed at a concentration of 20 μM for 18 hours at 37° C. with plasma and isotonic phosphate buffer pH 7.4 (1 ml of each in the dialysis cell). A Spectrum® 20-cell equilibrium dialyser was used together with Teflon, semi-micro dialysis cells and Spectra/Por®2 membrane discs with a molecular weight cut off 12-14000 Dalton, 47 mm (supplied by PerBio Science UK Ltd, Tattenhall, Cheshire). Plasma and buffer samples are removed following dialysis and analysed using HPLCUV/MS (high performance liquid chromatography with UV and mass spec detection) to give the % free level in plasma.

[2] = Plasma levels following oral administration to rats; type: in vivo; conditions: rat, oral gavage; including both bound and free; normalised dose of 1 mg compound per kilogram of rat body weight
Description: as §1
Planetary Milled compounds [15 mins, 500 rpm, 5 Zirconium Balls, in a Puluerisette 7 Mill (Glen Creston Ltd, Stanmore, Middlesex, UK)] were suspended in 0.5% HPMC Tween and dosed to High Fat Fed (Research Diets, D12451, ad lib feeding 14 days) Female Alderley Park Zucker or Alderley Park Wistar rats at rate of 5 mls/kg, at doses between 0.3 and 10 mg/kg by oral gavage.
Samples of plasma were obtained either by conscious blood sampling or terminal blood sampling as follows:
Conscious blood sampling (for compound level or blood chemistry)—Intravenous blood samples were taken from tail vein using 600 μl Starstedt Multivette (EDTA) and 22 G needle at the required time point. […]
The reconstituted samples were then analysed using high performance liquid chromatography with tandem mass spectrometry detection (HPLC-MS-MS)”. […]
The concentration of test samples was determined from the ratio of the peak height of the test sample to the peak height of the internal standard. The concentration of the test sample was calculated with reference to a standard curve relating the ratio to the concentration prepared by using known concentrations of test sample added to samples of rat plasma using (3-isopropoxy-5-benzyoxy-benzoyl)amino pyridine 3-carboxylic acid as an internal standard, treated as described above.

fraction unbound at 18 hours, 20 μM [1]: 0.0042
SMILES: COC[C@H](C)Oc1cc(O[C@@H](C)Cc2ccccc2OC)cc(C(=O)Nc2ccc(C(=O)O)cn2)c1 [Example 2.1, 6-{3-[(1S)-1-methyl-2-(2-methoxyphenyl)ethoxy]-5-[(1S)-2-methoxy-1-methylethoxy]-benzoylamino}-3-pyridine carboxylic acid]
Peak Blood levels [2]: 1.29 µM

Reference: patent publication US20070078168A1, “PYRIDINE CARBOXYLIC ACID DERIVATIVES AS GLUCOKINASE MODULATORS” (priority 2003, published 2007)
